# Measurements reported in patent US10292994B2, “Bioactive fractions and compounds from Dalbergia sissoo for the prevention or treatment of osteo-health related disorders” (Council of Scientific & Industrial Research, priority 2011, dated 2019).
# Marks after values point to notes of the source that are not given here.
# Assays:
# [1] = system: Calvarial osteoblasts; assay: Osteoblast alkaline phosphatase (ALP) activity; type: cell-based, rat; settings: for ALP activity: calvarial osteoblasts, 10 days culture, FIG. 6
# Experimental: (§1) Neonatal rat calvarial cell cultures are prepared as described previously (Chattopadhyay et al., Endocrinology 145:3451-62, 2004) using slight modification. Briefly, for calvarial osteoblast cultures, frontal and parietal bones from neonatal Sprague-Dawley rats (1-3 day old) were digested in 0.1% collagenase/0.1% dispase in α-MEM to obtain 5 sequential digests. The second through fifth digests are combined and grown to confluence at 37° C. and 5% CO2 in air in α-MEM, supplemented with 10% fetal bovine serum (FBS), 2 mM glutamine, 100 U/ml penicillin-streptomycin, non-essential amino acid solution and sodium pyruvate. These osteoblast cells were further used to test thirteen pure compounds designated as 1-13. During the course of culture, pre-osteoblasts undergo three characteristic stages of osteoblasts with the expression of stage specific genes. These are: • Proliferation & differentiation: Days 1-12 • Genes—cbfa1, Osterix, Alkaline phosphatase, • Collagen-1 • Extra-cellular matrix maturation: Days 12-18 • Genes—Osteocalcin, Osteopontin, Fibronectin • Mineralization: Days 14-35 • Feature—Calcification (nodule formation) Measurement of Osteoblast Alkaline Phosphatase (ALP) Activity
# Calvarial osteoblasts cells were plated (1500 cells/well in 12 well plate) in the osteoblast differentiation medium and the culture was continued for 10 days with or without treatment with these compounds. This is the time when the ALP levels peak, and serves as an osteoblast differentiation marker. The cells at this point were washed twice with PBS and then plates were fixed by keeping them at −70° C. for 1 h, and then brought to room temperature to determine ALP activity. The rate of the reaction here is directly proportional to the enzyme activity, which itself is proportional to osteoblast differentiation. The O.D. was measured at 405 nm with a microplate reader.
# [2] = system: Osteoblasts; assay: Osteoblast growth / toxicity (MTT); type: cell-based, rat; settings: FIG. 8; for growth / proliferation of the osteoblastic cells: 1 pM to 1 μM, 48 h
# Experimental: as §1, with “Briefly,” for “Neonatal rat calvarial cell cultures are prepared as described previously (Chattopadhyay et al., Endocrinology 145:3451-62, 2004) using slight modification. Briefly,”
# Many isoflavonoids at micromolar concentrations are known to inhibit osteoblast cell growth. Osteoblasts were cultured in the absence or presence of compounds (dissolved in 0.01% DMSO final concentration) at various concentrations (1 pM to 1 μM) for 48 h. Cells receiving vehicle (0.01% DMSO) served as control. After incubation, the cells were washed with PBS. Then, cells were treated with MTT solution (5 mg/10 mL in DMEM devoid of Phenol Red) for 4 h. Formazon crystals formed were dissolved in DMSO and O.D. was taken at 540 nm.
# [3] = system: bone marrow stromal cells; assay: Mineralization of bone marrow stromal cells of estrogen deficient rats; type: in vivo, rat; settings: estrogen deficient (OVx) rats vs OVx rats treated with vehicle; estrogen 2.5 μg/kg
# [4] = system: ovariectomized (OVx) Sprague Dawley rats; assay: μCT trabecular microarchitecture after 12 weeks treatment of OVx rats; type: in vivo, rat; settings: for SMI / Tb. No. / Tb. Sp. / Tb. Th.: estradiol 2.5 μg·kg−1·day−1; for BV/TV: estradiol 2.5 μg·kg−1·day−1, mean ± S.D.
# Experimental: The study was conducted in accordance with current legislation on animal experiments [Institutional Animal Ethical Committee (IAEC)] at C.D.R.I. […] Sprague Dawley rats weighing 180-200 gm were either bilaterally ovariectomized (OVx) or exposed to a sham surgical procedure. All rats were individually housed at 21° C., in 12-h light:12-h dark cycles. All rats had excess to normal chow diet and water ad libitum. After OVx, the rats were left for 12 weeks to develop osteopenia. […] Equal numbers of OVx and sham operated rats served as the control, and were given vehicle (20% ethanol). The rats were weighed each week. […] After twenty-four hours of fasting urine samples were collected in fresh containers, centrifuged at 2000 rpm at room temperature and stored at -20° C. until analyzed. Rats were then euthanized. At autopsy, blood samples were collected by cardiac puncture in tubes, and serum samples collected and frozen until analysis. Uteri were carefully excised, gently blotted, weighed, and fixed for histology and histomorphometry. About 5 mm pieces from the middle segment of each uterus were dehydrated in ascending grades of ethanol, cleared in xylene, and embedded in paraffin wax using standard procedures. Representative transverse sections (5 μm) were stained with H&E stain. Photomicrographs of sections were obtained using a Leica DC 300 camera and Leica IM50 Image Acquisition software fitted to a Leica DMLB microscope. Histomorphometric measurements were done using Leica Qwin-Semiautomatic image Analysis software. μCT (both 2-D and 3-D) determination of excised bones was carried out using the Sky Scan 1076 μCT scanner (Aartselaar, Belgium) using the cone-beam reconstruction software version 2.6 based on the Feldkamp algorithm (Skyscan). The bone marrow was harvested for ex vivo experiments. Both femora were dissected and separated from adjacent tissue, cleaned, and used for RNA isolation and also micro measurements. Trabecular response to A-4744/[…] treatment of OVx rats was quantified at the femur epiphysis and tibial proximal metaphysis.
# [5] = system: bone morphogenetic protein (BMP-2); assay: In vivo osteogenic efficacy: BMP-2 expression in calvaria by qPCR; design: species or system rat; settings: calvaria of 1- to 2-day-old rats, 5.0 mg·kg−1·day−1 s.c. for 3 consecutive days, fold change over vehicle/untreated, FIG. 7
# Source text: The results are expressed as fold change over untreated cells (FIG. 7).
# [6] = system: ovariectomized Balb/c mice; assay: μCT trabecular microarchitecture after 8 weeks treatment of osteopenic OVx mice; type: in vivo, mouse; design: Tb. Th. / Tb. Sp.: unit not given here; settings: for SMI / Tb. No. / Tb. Sp. / Tb. Th. / BV/TV: 8 weeks; for BV/TV: osteopenic OVx mice, mean ± S.D.
# Experimental: The study was conducted in accordance with current legislation on animal experiments [Institutional Animal Ethical Committee (IAEC)] at C.D.R.I. Balb/c mice weighing ˜25-30 gm were either bilaterally ovariectomized (OVx) or exposed to a sham surgical procedure. After ovariectomy, mice were left for 30 days for osteopenia to develop. Mice were individually housed at 21° C., in 12-h light:12-h dark cycles. All mice had excess to normal chow diet and water ad libitum. […], treatment in the form of gavage (1.0 mg and 5.0 mg/kg body weight) was given daily. Equal numbers of OVx and sham operated mice served as the control, and were given vehicle. At the end of 8 weeks, mice were euthanized. At autopsy, both femur and tibia were dissected and separated from adjacent tissue, cleaned, and used for μCT measurements.
# [7] = femur, OVx mice, 1 mg · kg^-1 · day^-1
# [8] = femur, OVx mice, 5 mg · kg^1 · day^1
# [9] = tibia, OVx mice, 1 mg · kg^-1 · day^-1
# [10] = tibia, OVx mice, 5 mg · kg^1 · day^1
compound,measurement,setting,value
"COc1ccc(-c2coc3cc(O[C@@H]4OC(CO)[C@@H](O)[C@H](O)C4O)cc(O)c3c2=O)cc1 (stereo partly drawn) [Compound 6, Biochanin 7-O-glycoside]",ALP activity,[1],significantly increased
same,melting point,,206 to 208 °C
same,growth / proliferation of the osteoblastic cells,[2],proliferation
"C[C@]12CC[C@@H]3c4ccc(O)cc4CC[C@H]3[C@@H]1CC[C@@H]2O [ESTRADIOL (E2), Estradiol]",mineralization of the bone marrow stromal cells,[3],unable to increase mineralization
same,SMI,[4]; femur,2.41 ± 0.13
same,Tb. No.,[4]; femur,0.725 ± 0.024
same,Tb. Sp.,[4]; femur,0.86 ± 0.004
same,Tb. Th.,[4]; femur,0.78 ± 0.01
same,BV/TV,[4]; femur,59.23 ± 30.19 %
same,SMI,[4]; tibia,2.24 ± 0.021
same,Tb. No.,[4]; tibia,0.30 ± 0.02
same,Tb. Sp.,[4]; tibia,1.29 ± 0.029
same,Tb. Th.,[4]; tibia,0.10 ± 0.004
same,BV/TV,[4]; tibia,3.04 ± 0.24 %
"O=c1c(-c2ccc(O)cc2)coc2cc(O)cc(O)c12 [Compound 4, Genstein]",ALP activity,[1],significantly increased
same,increase in BMP-2 expression,[5],5 fold
same,growth / proliferation of the osteoblastic cells,[2],proliferation
"COc1ccc(-c2coc3cc(O)cc(O)c3c2=O)cc1 [Compound 1, Biochanin A]",ALP activity,[1],significantly increased
same,growth / proliferation of the osteoblastic cells,[2],proliferation
"COc1cc(-c2coc3cc(O)cc(O)c3c2=O)ccc1O [Compound 3, Pratensein or 3′-methoxygenistein]",ALP activity,[1],significantly increased
same,growth / proliferation of the osteoblastic cells,[2],proliferation
COc1cc(OC)c(-c2coc3cc(O[C@@H]4OC(COC5OCC(O)(CO)C5O)[C@@H](O)C(O)C4O)c(OC)c(O)c3c2=O)cc1OC (stereo partly drawn) [Compound 10],mineralization of the bone marrow stromal cells,[3],significantly greater mineralization
same,ALP activity,[1],significantly increased
same,"increase in osteoblast differentiation over the control, assessed by ALP production","[1]; over the control, listed as Caviunin 7-O-[β-D-apiofuranosyl-(1→6)-β-D-glucopyranoside]",> 1.0 fold
same,trabecular bone in tibia metaphysis,[6]; OVx mice,significantly restored
same,Tb.sp and SMI,[6]; femur epiphysis of OVx mice compared to OVx+vehicle mice,increased
same,"BV/TV, Tb.Th and Tb.N",[6]; femur epiphysis of OVx mice compared with OVx+vehicle group,increased
same,SMI,[6]; [7],1.992 ± 0.0382
same,Tb. No.,[6]; [7],0.588 ± 0.034
same,Tb. Sp.,[6]; [7],0.529 ± 0.022
same,Tb. Th.,[6]; [7],0.069 ± 0.002
same,SMI,[6]; [8],1.615 ± 0.0434***^a
same,Tb. No.,[6]; [8],0.759 ± 0.061***^b
same,Tb. Sp.,[6]; [8],0.502 ± 0.023 ^
same,Tb. Th.,[6]; [8],0.070 ± 0.001 ^
same,BV/TV,"[6]; femur, 1 mg · kg^-1 · day^-1",4.10 ± 0.253 %
same,BV/TV,"[6]; femur, 5 mg · kg^1 · day^1",5.54 ± 0.739***^a %
same,SMI,[6]; [9],2.46 ± 0.051
same,Tb. No.,[6]; [9],0.222 ± 0.018
same,Tb. Sp.,[6]; [9],0.690 ± 0.013
same,Tb. Th.,[6]; [9],0.064 ± 0.0015
same,SMI,[6]; [10],2.43 ± 0.072
same,Tb. No.,[6]; [10],0.266 ± 0.014
same,Tb. Sp.,[6]; [10],0.671 ± 0.040
same,Tb. Th.,[6]; [10],0.065 ± 0.001
same,BV/TV,"[6]; tibia, 1 mg · kg^-1 · day^-1",1.67 ± 0.086 %
same,BV/TV,"[6]; tibia, 5 mg · kg^1 · day^1",1.701 ± 0.120 %
same,melting point,,135 to 138 °C
same,increase in BMP-2 expression,[5],15 fold
same,growth / proliferation of the osteoblastic cells,[2],proliferation
same,toxicity to the cells,"[2]; osteoblasts, 1 pM to 1 μM for 48 h, vs vehicle control",not toxic
